In this test the target is T1, human Chk1 (GST-Chk1) (Homo sapiens, UniProt O14757).
T1 construct: made in house; host or cells: insect cells (baculovirus, Bac-to-Bac)
T1 sequence (O14757 1-476): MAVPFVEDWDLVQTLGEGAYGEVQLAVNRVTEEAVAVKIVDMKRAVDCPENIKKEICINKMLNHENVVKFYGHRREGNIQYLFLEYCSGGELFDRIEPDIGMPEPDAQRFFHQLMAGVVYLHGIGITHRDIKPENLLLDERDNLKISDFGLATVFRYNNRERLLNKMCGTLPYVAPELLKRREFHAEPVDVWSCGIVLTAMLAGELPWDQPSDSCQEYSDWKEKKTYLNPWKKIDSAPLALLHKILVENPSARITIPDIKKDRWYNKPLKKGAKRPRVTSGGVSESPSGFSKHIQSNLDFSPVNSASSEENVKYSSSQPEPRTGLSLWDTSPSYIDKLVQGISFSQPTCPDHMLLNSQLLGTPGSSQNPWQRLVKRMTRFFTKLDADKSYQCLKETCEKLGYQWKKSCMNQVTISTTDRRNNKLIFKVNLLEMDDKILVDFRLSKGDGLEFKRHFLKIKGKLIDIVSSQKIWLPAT
The test can be described thus: Chk1 FlashPlate kinase assay. It counts as biochemical. The settings on record: 8.7 nM GST-Chk1, 1 uM ATP, 33P incorporation into peptide substrate. On the procedure: Recombinant human Chk1 was expressed as a fusion protein with glutathione S-transferase at the amino-terminus (GST-Chk1) using standard baculovirus vectors and (Bac-to-Bac®) insect cell expression system purchased from GIBCO™ Invitrogen. Recombinant protein expressed in insect cells was purified using glutathione sepharose (Amersham Biotech) using standard procedures described by the manufacturer.
Chk1 FlashPlate® Kinase Assay:
Assays (25 μL) contained 8.7 nM GST-Chk1, 10 mM MES, 0.1 mM ethylene glycol-bis(β-aminoethylether)-N,N,N′,N′-tetracetic acid (EGTA, pH 8.0), 2 mM DTT, 0.05% Tween 20, 3 uM peptide substrate (Biotin-ILSRRPSYRKILND-free acid) (SEQ ID NO: 1), 1 uM ATP, 0.4 uCi ^33P-γ-ATP (NEN), 4% DMSO. Reactions were incubated for 30 minutes at room temperature, terminated with 50 μL of 50 mM EDTA and 90 μL were transferred to streptavidin-coated FlashPlates® (NEN) and incubated for 1 hour at room temperature. Plates were washed with phosphate buffered salaine containing 0.01% Tween-20 and 10 mM sodium pyrophosphate. Plates were dried, sealed with Topseal™ (NEN) and amount of ^33P incorporated into the peptide substate measure using a Packard Topcount® NXT™ scintillation counter with standard settings.

With `Cc1n[nH]c2c1c(=O)n(C[C@@H](C)CNC(=O)OC(C)(C)C)c1ccc(Br)cc21` [Example 46, [3-(8-Bromo-3-methyl-4-oxo-1,4-dihydro-pyrazolo[4,3-c]quinolin-5-yl)-2-S-methyl-propyl]-carbamic acid tert-butyl ester], the IC50 was < 1000 nM.
The value for `Cc1n[nH]c2c1c(=O)n(C[C@@H](C)CN)c1ccc(Br)cc21` [Example 47, 5-(3-Amino-2-S-methyl-propyl)-8-bromo-3-methyl-1,5-dihydro-pyrazolo[4,3-c]quinolin-4-one] was < 1000 nM; that for `Cc1n[nH]c2c1c(=O)n(CC1CCCNC1)c1ccc(Br)cc21` (centres unmarked) [Example 48, 8-Bromo-3-methyl-5-piperidin-3-ylmethyl-1,5-dihydro-pyrazolo [4,3-c]quinolin-4-one] was < 1000 nM; that for `COCCc1[nH]nc2c1c(=O)n(CCCN)c1ccc(Cl)cc21` [Example 50, 5-(3-Amino-propyl)-8-chloro-3-(2-methoxy-ethyl)-2,5-dihydro-pyrazolo[4,3-c]quinolin-4-one] was < 1000 nM.
Then `Cc1n[nH]c2c1c(=O)n(CCCNCCc1ccccc1)c1ccccc21` [Example 51, 3-Methyl-5-(3-phenethylamino-propyl)-1,5-dihydro-pyrazolo[4,3-c]quinolin4-one], with < 1000 nM; and `Cc1n[nH]c2c1c(=O)n(CCNC(=O)OC(C)(C)C)c1ccc(Br)cc21` [Example 52, [2-(8-Bromo-3-methyl-4-oxo-1,4-dihydro-pyrazolo[4,3-c]quinolin-5-yl)-ethyl]-carbamic acid tert-butyl ester], with < 1000 nM.
The value for `Cc1n[nH]c2c1c(=O)n(CCN)c1ccc(Br)cc21` [Example 53, 5-(2-Amino-ethyl)-8-bromo-3-methyl-1,5-dihydro-pyrazolo[4,3-c]quinolin4-one] was < 1000 nM.
In the case of `Cc1[nH]nc2c1c(=O)n(CCCN)c1ccc([N+](=O)[O-])cc21` [Example 55, 5-(3-Amino-propyl)-3-methyl-8-nitro-2,5-dihydro-pyrazolo[4,3-c]quinolin-4-one], the 50% inhibitory concentration (IC50) was < 1000 nM.
The value for `Cc1n[nH]c2c1c(=O)n(CCCNC(=O)OC(C)(C)C)c1ccc(Br)cc21` [Example 56, [3-(8-Bromo-3-methyl-4-oxo-1,4-dihydro-pyrazolo[4,3-c]quinolin-5-yl)-propyl]-carbamic acid tert-butyl ester] was < 1000 nM.
The value for `Cc1[nH]nc2c1c(=O)n(CCCN)c1ccc(Br)cc21` [Example 57, 5-(3-Amino-propyl)-8-bromo-3-methyl-1,5-dihydro-pyrazolo[4,3-c]quinolin-4-one] was < 1000 nM.
Then `COc1ccc2c(c1)c1n[nH]c(C)c1c(=O)n2CCCN` [Example 58], with < 1000 nM.
In the case of `Cc1[nH]nc2c1c(=O)n(CCCN)c1ccc(O)cc21` [Example 59, 5-(3-Amino-propyl)-8-hydroxy-3-methyl-2,5-dihydro-pyrazolo[4,3-c]quinolin-4-one], the half-maximal inhibitory concentration (IC50) is < 1000 nM.
On to `Cc1[nH]nc2c1c(=O)n(CCCNC(=O)c1ccc(Cl)cc1)c1ccccc21` [Example 60, 4-Chloro-N-[3-(3-methyl-4-oxo-2,4-dihydro-pyrazolo[4,3-c]quinolin-5-yl)-propyl]-benzamide], for which the half-inhibitory concentration (IC50) is < 1000 nM.
Take `Cc1[nH]nc2c1c(=O)n(CCCNC(=O)c1ccc([N+](=O)[O-])cc1)c1ccccc21` [Example 61, N-[3-(3-Methyl-4-oxo-2,4-dihydro-pyrazolo[4,3-c]quinolin-5-yl)-propyl]-4-nitro-benzamide]: the IC50 is < 1000 nM.
Then `Cc1[nH]nc2c1c(=O)n(CCCNC(=O)CCc1ccccc1)c1ccccc21` [Example 62, N-[3-(3-Methyl-4-oxo-2,4-dihydro-pyrazolo[4,3-c]quinolin-5-yl)-propyl]-3-phenyl-propionamide], with < 1000 nM.
In the case of `Cc1[nH]nc2c1c(=O)n(CCCNC(=O)c1ccc(F)cc1F)c1ccccc21` [Example 63, 2,4-Difluoro-N-[3-(3-methyl-4-oxo-2,4-dihydro-pyrazolo[4,3-c]quinolin-5-yl)-propyl]-benzamide], the half-inhibitory concentration (IC50) is < 1000 nM.
Turning to `Cc1[nH]nc2c1c(=O)n(CCCNC(=O)c1ccc(F)cc1)c1ccccc21` [Example 64, 4-Fluoro-N-[3-(3-methyl-4-oxo-2,4-dihydro-pyrazolo[4,3-c]quinolin-5-yl)-propyl]-benzamide], the half-maximal inhibitory concentration (IC50) is < 1000 nM.
Then `Cc1[nH]nc2c1c(=O)n(CCCNC(=O)C1CCCCC1)c1ccccc21` [Example 65, Cyclohexanecarboxylic acid [3-(3-methyl-4-oxo-2,4-dihydro-pyrazolo[4,3-c]quinolin-5-yl)-propyl]-amide], with < 1000 nM.
For `Cc1n[nH]c2c1c(=O)n(CCCNC(=O)Nc1ccccc1)c1ccccc21` [Example 66, 1-[3-(3-Methyl-4-oxo-1,4-dihydro-pyrazolo[4,3-c]quinolin-5-yl)-propyl]-3-phenyl-urea], the half-maximal inhibitory concentration (IC50) was < 1000 nM.
The value for `Cc1n[nH]c2c1c(=O)n(CCCCNC(=O)Nc1ccccc1)c1ccc(Br)cc21` [Example 67, 1-[4-(8-Bromo-3-methyl-4-oxo-1,4-dihydro-pyrazolo[4,3-c]quinolin-5-yl)-butyl]-3-phenyl-urea] was < 1000 nM; that for `Cc1[nH]nc2c1c(=O)n(CCCNC(=O)c1ccc(C#N)cc1)c1ccccc21` [Example 68, 4-Cyano-N-[3-(3-methyl4-oxo-2,4-dihydro-pyrazolo[4,3-c]quinolin-5-yl)-propyl]-benzamide] was < 1000 nM.
Then `COc1ccc(C(=O)NCCCn2c(=O)c3c(C)[nH]nc3c3ccccc32)cc1` [Example 69, 4-Methoxy-N-[3-(3-methyl-4-oxo-2,4,5a,9a-tetrahydro-pyrazolo[4,3-c]quinolin-5-yl)-propyl]-benzamide], with < 1000 nM; and `Cc1[nH]nc2c1c(=O)n(CCCN)c1cc(Cl)ccc21` [Example 70, 5-(3-Amino-propyl)-7-chloro-3-methyl-2,5-dihydro-pyrazolo[4,3-c]quinolin-4-one], with < 1000 nM.
Turning to `Cc1[nH]nc2c1c(=O)n(CCCNC(=O)c1cccc(Cl)c1)c1ccccc21` [Example 71, 3-Chloro-N-[3-(3-methyl-4-oxo-2,4-dihydro-pyrazolo[4,3-c]quinolin-5-yl)-propyl]-benzamide], the IC50 is < 1000 nM.
Then `Cc1[nH]nc2c1c(=O)n(CCCNC(=O)c1ccc(C(F)(F)F)cc1)c1ccccc21` [Example 72, N-[3-(3-Methyl-4-oxo-2,4-dihydro-pyrazolo[4,3-c]quinolin-5-yl)-propyl]-4-trifluoromethyl-benzamide], with < 1000 nM.
Then `Cc1n[nH]c2c1c(=O)n(CCCNC(=O)c1ccccc1)c1ccccc21` [Example 73, N-[3-(3-Methyl-4-oxo-1,4-dihydro-pyrazolo[4,3-c]quinolin-5-yl)-propyl]-benzamide], with < 1000 nM; and `Cc1[nH]nc2c1c(=O)n(CCCNC(=O)N1CCOCC1)c1ccccc21` [Example 74, Morpholine-4-carboxylic acid [3-(3-methyl-4-oxo-2,4-dihydro-pyrazolo[4,3-c]quinolin-5-yl)-propyl]-amide], with < 1000 nM.
Regarding `Cc1[nH]nc2c1c(=O)n(CCCNC(=O)c1ccc(Cl)cc1)c1cc(Cl)ccc21` [Example 75, 4-Chloro-N-[3-(7-chloro-3-methyl-4-oxo-2,4-dihydro-pyrazolo[4,3-c]quinolin-5-yl)-propyl]-benzamide], the 50% inhibitory concentration (IC50) is < 1000 nM.
In the case of `Cc1[nH]nc2c1c(=O)n(CCCNC(=O)c1ccc(Cl)c(Cl)c1)c1ccccc21` [Example 76, 3,4-Dichloro-N-[3-(3-methyl-4-oxo-2,4-dihydro-pyrazolo[4,3-c]quinolin-5-yl)-propyl]-benzamide], the 50% inhibitory concentration (IC50) was < 1000 nM.
Turning to `Cc1[nH]nc2c1c(=O)n(CCCNC(=O)c1ccc(N(C)C)cc1)c1ccccc21` [Example 78, 4-Dimethylamino-N-[3-(3-methyl-4-oxo-2,4-dihydro-pyrazolo[4,3-c]quinolin-5-yl)-propyl]-benzamide], the IC50 is < 1000 nM.
The value for `COc1ccc2c(c1)c1n[nH]c(C)c1c(=O)n2CCCNC(=O)OC(C)(C)C` [Example 79, [3-(8-Methoxy-3-methyl-4-oxo-2,4-dihydro-pyrazolo[4,3-c]quinolin-5-yl)-propyl]-carbamic acid tert-butyl ester] was < 1000 nM; that for `Cc1[nH]nc2c1c(=O)n(CCCNC(=O)OCc1ccccc1Cl)c1ccccc21` [Example 80, [3-(3-Methyl-4-oxo-2,4-dihydro-pyrazolo[4,3-c]quinolin-5-yl)-propyl]-carbamic acid 2-chloro-benzyl ester] was < 1000 nM.

The values above are taken from patent US20050245563A1 (Millennium Pharmaceuticals, Inc., priority 2003, published 2005).
